These results are taken from patent publication US20090247555A1, “5,7-Disubstituted[1,3]Thiazolo[4,5-D]Pyrimidin-2(3H)-One Derivatives 258” (AstraZeneca AB, priority 2008, published 2009).

SMILES strings stand for the structures.

For one test, the target named is T1, CX3CR1 receptor (Homo sapiens, UniProt P49238).
T1 construct: host or cells: CHO K1 cells; membranes prepared in-house
T1 sequence (P49238 1-355): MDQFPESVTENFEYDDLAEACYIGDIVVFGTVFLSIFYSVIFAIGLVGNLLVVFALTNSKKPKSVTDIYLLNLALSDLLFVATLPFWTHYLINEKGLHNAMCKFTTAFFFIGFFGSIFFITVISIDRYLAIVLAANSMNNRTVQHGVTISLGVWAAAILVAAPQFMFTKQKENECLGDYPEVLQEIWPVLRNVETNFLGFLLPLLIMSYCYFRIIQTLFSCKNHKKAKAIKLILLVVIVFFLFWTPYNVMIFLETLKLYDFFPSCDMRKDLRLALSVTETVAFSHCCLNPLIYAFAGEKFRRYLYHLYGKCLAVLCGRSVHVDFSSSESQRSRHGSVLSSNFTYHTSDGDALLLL
As to the kind of experiment: Fractalkine (CX3CR1) GTPgS inhibition assay (96 well). The format is biochemical. Particulars: CX3CR1 CHO K1 membranes, inhibition of 35S-GTPγS signal generated by EC80 of fractalkine, triplicate. Here is the method: The activation of the CX3CR1 receptor by fractalkine can be detected using a GTPγS assay. ^35S-labelled GTPγS is added to the reaction (together with compounds and CX3CR1 CHO K1 membranes) to bind to the G-protein in the membranes instead of GTP upon activation of the receptor. Since ^35S-labelled GTPγS is non-hydrolysable the receptor will stay in its active state. The bound ^35S-labelled GTPγS is separated from free by vacuum filtration onto 96 well filters. In inhibition assay mode the receptor in the membranes will be activated with the EC80 of fractalkine and further the CX3CR1 antagonists will inhibit the signal generated by the EC80 of fractalkine.
Ligand: Fractalkine, PeproTech, cat no 300-31, 1 mg, −20° C. Diluted in dH2O+0.05% BSA to a stock concentration of 0.1 mM, Stored in −20° C.
^35S-GTPγS, Perkin Elmer (NEN), Cat no NEG030H, Specific activity 1250 Ci/mmol, 1 mCi/ml, −20° C.
Membranes: membranes are prepared inhouse from CX3CR1 CHO K1 cells purchased from Euroscreen. Protein concentration: 5.7 mg/ml, −80° C.
• HEPES: Sigma H-3375, RT • MgCl2×6H2O: Merck, cat no 5833, RT • NaCl: Merck, cat no 6404, RT • GDP: −20° C., Sigma cat no G-7127, Diluted in dH2O to a stock concentration of 10 mM. • Stored in −20° C. • Gelatine type A: Sigma, cat no G2625, 1% stock in water (heating is necessary to dissolve gelatine) made fresh on the day of the experiment RT
• Tris: Tris-HCl: Sigma, cat no T1503, RT • Tris-base: Sigma, cat no T3283, RT • MgCl2×6H2O: Merck, cat no 5833, RT • NaCl: Merck, cat no 6404, RT • Assay plates: 96 well, Nunc, 269620 • Filter: Printed Filtermat B, Wallac • Scintillator sheets: MeltiLex B, PerkinElmer
Assay plates are prepared by CMT with 1 compound/plate. 2 μl compound with the highest concentration 3.3 mM diluted with a factor 3 in 10 steps. This gives a final assay concentration of 33 μM for the highest concentration.
100 μl membranes (5 μg/well) diluted in 2× assay buffer is added to the assay plate.
100 μl ^35S-GTPγS (final assay concentration: 0.00056 μCi/μl) diluted in dH2O with EC80 of fractalkine is then added. […]
The plate is read in a microbeta. […]
(In general: GTPγS resists hydrolysis and so accumulates on activated G proteins.)

Test [1] concerns human whole blood, adhesion to fractalkine. As to the kind of experiment: Human whole blood flow adhesion assay. Conditions: heparinised human whole blood, adhesion to recombinant human fractalkine under flow, 15 min preincubation. The format is cell-based. Here is the method:
Flow adhesion assays were performed using a microfluidics system (Cellix Microfluidics SP1.0 platform) and 8-channel biochips (Cellix Vena 8 biochips). Channel 1 was used as control and channels 2 to 8 to evaluate seven different concentrations of antagonist. To 25 monitor adhesion to fractalkine, channels were first coated with 15 μl of anti-His Tag antibody at 25 μg/ml for 2 hours. Channels were then washed three times with 15 μl DPBS to remove unbound antibody. Subsequently, 15 μl of recombinant human fractalkine at 2.5 μg/ml was added to each channel and biochips were left at 4° C. overnight in a humidified atmosphere. The following day, channels were washed three times with 15 μl DPBS prior to blocking with 15 μl of BSA at 10 mg/ml for 30 minutes. Human whole blood was obtained by venipuncture using heparin as anti-coagulant. DMSO carrier or compounds in DMSO were added to 0.3 ml blood in 1.5 ml Eppendorf tubes followed by incubation at room temperature for 15 minutes. The Vena 8 biochip was placed on a microscope stage and channels were washed with RPMI 1640 medium containing 1% BSA in preparation for the assays. […] Adhered cells were subsequently quantified using DucoCell software (Cellix).

On to `CC(C)CC(CO)Nc1nc(SC(C)c2ccccn2)nc2[nH]c(=O)sc12` (single isomer, unassigned; isomer 1) [Example 12], for which the 50% inhibitory concentration (IC50) (as a rule, the concentration that gives 50% inhibition) on CX3CR1 receptor was 1 µM; in test [1], 2.4 µM.

In the case of `CC(C)CC(CO)Nc1nc(SC(C)c2ccccn2)nc2[nH]c(=O)sc12` (single isomer, unassigned; isomer 2) [Example 13], at CX3CR1 receptor, half-maximal inhibition (IC50) required 9.2 µM.

In the case of `CC(C)C[C@H](CO)Nc1nc(SC(C)c2ccccn2)nc2[nH]c(=O)sc12` (stereo partly drawn) [Example 1, 7-[(R)-1-hydroxy-4-methylpentan-2-ylamino]-5-[1-(pyridin-2-yl)ethylthio]thiazolo[4,5-d]pyrimidin-2(3H)-one], half-maximal inhibition on CX3CR1 receptor (IC50) was put at 2.6 µM.
